Test results: patent US5447931A, “New therapeutic use of heterocyclylpiperazines as 5-HT3 agonists and new compounds” (Sanofi, priority 1992, dated 1995)

System: 5-HT3 receptors
Assay: Bezold-Jarisch effect (reduction of heart rate) in the anesthetized rat, intravenous administration
Format: in vivo, Sprague-Dawley rats
Conditions: antagonist against the heart rate reduction by compounds of formula (I)

Structure (SMILES) | inhibition by antagonist of the Bezold-Jarisch effect evoked by compounds of formula (I)
CN1[C@@H]2CC[C@H]1C[C@@H](OC(=O)c1c[nH]c3ccccc13)C2 [ICS 205-930] | inhibited
COc1cc(N)c(Cl)cc1C(=O)NC1CN2CCC1CC2 (centres unmarked) [zacopride] | inhibited
